Results on six compounds are retold here after patent US8815499B2, “In situ detoxification of fermentation inhibitors with reducing agents” (priority 2009, dated 2014).

Where two headings read alike, the source gives them in different places.

Data set [1] deals with yeast Saccharomyces cerevisiae. As to the method: A spruce slurry was prepared an subjected to acidic hydrolysis as described in Example 6. […] Sodium dithionite was added to different samples to concentrations of 2.5, 5, 7.5, 10, 12.5, and 15 mM. The treatments were performed at 21° C. for 5 min with stirring. In addition, treatments with 0.1% (7.9 mM) and 1% (79.3 mM) sodium sulphite were performed. […] Furthermore, a sugar solution (glucose 18 g/L, mannose 14 g/L) was prepared to evaluate if the effect of the sodium dithionite treatment was due to an effect on the hydrolysate or the ethanolic fermentation with yeast. Half of the sugar solution was treated with 10 mM sodium dithionite, whereas the rest was left untreated as a reference. The volumes of treated and untreated samples were equalized with water and the pH was adjusted to pH 5.5 prior to the fermentation. Fermentation was performed with the yeast Saccharomyces cerevisiae as described in the previous Examples.
Spruce hydrolysate samples were prepared as in Example 6.
Two samples were treated with DTT to 2 and 20 mM, respectively, two samples were treated with ascorbic acid to 10 and 100 mM, respectively and two samples were treated with glutathione to 1 and 10 mM, respectively.
The treatment time was 3 h for all samples and fermentation was performed as described in the previous Examples.

Data set [2] has as its system baker's yeast (Saccharomyces cerevisiae). The class given is cell-based. The procedure: The pH of the sugarcane bagass and spruce hydrolysates were adjusted to 5.5 with a 5 M solution of sodium hydroxide. The conditioning of each hydrolysate was performed in eight 100-mL glass vessels equipped with magnetic stirrer bars. 26 mL hydrolysate was added to all vessels, and the vessels were placed on a magnetic stirrer plate (IKA-Werke, Staufen, Germany). Sodium dithionite (chemical grade; >87%, Merck, Darmstadt, Germany) was added to hydrolysates in the concentrations 5 and 10 mM. Additions of sodium sulphite to 5 and 10 mM were also performed. The additions were made at room temperature (23° C.) and the samples were kept for 10 min with stirring. The experiments were performed in duplicates.
The efficiency of the additions of the reducing agents was compared with alkali detoxification.
Ethanol measurements were performed by using an enzymatic kit (Ethanol UV-method, Boehringer Mannheim GmbH, Mannheim, Germany). Fermentation experiments were performed to evaluate the effectiveness of the additions and treatments. For comparison, untreated hydrolysates were included in the fermentation experiments as well as reference fermentations of sugar-based medium with an amount of fermentable sugars (i.e. glucose and mannose) corresponding to that in the hydrolysate samples. The fermentations were carried out using baker's yeast (Saccharomyces cerevisiae) (Jästbolaget AB, Rotebro, Sweden). The yeast inoculum was prepared in 750-mL cotton-plugged shake flasks with 300 mL YEPD medium ([…], 2% D-glucose). The flasks were inoculated and incubated with agitation at 30° C. for approximately 12 h. The cells were harvested in the late exponential growth phase by centrifugation (Hermla Z206A, Hermle Labortechnik GmbH, Wehingen, Germany) at 1,500 g for 5 min. The cells were resuspended in an appropriate amount of sterile water to achieve an inoculum consisting of 2.0 g/L (cell dry weight) in all fermentation vessels. The fermentation was carried out in 14 25-mL glass flasks equipped with magnets for stirring and sealed with rubber plugs pierced with cannulas for letting out carbon dioxide. The hydrolysate samples (23.75 mL), or alternatively the sugar solution for reference fermentations, were added to the fermentation flasks along with 0.5 mL of a nutrient solution (150 g/L yeast extract, 75 g/L (NH4)2HPO4, 3.75 g/L MgSO4.7 H2O, 238.2 g/L NaH2PO4.H2O), and 0.75 mL of yeast inoculum. The flasks were incubated at 30° C. in a water bath with magnetic stirring (IKA-Werke). Samples for measurement of sugars and ethanol were withdrawn during the fermentation. The glucose levels during the fermentation were estimated by using a glucometer (Glucometer Elite XL, Bayer AG, Leverkusen, Germany).

Data set [3] deals with yeast Saccharomyces cerevisiae. Kind of data set: Simultaneous saccharification and fermentation (SSF) of sugarcane bagass slurry. The format is cell-based. The conditions noted are these: 7.5 and 10 mM, FIG. 9.
Description: SSF experiments were also performed with sugarcane bagass slurries. […] Reducing agents, dithionite and sulphite, respectively, were added 10 min prior to inoculum in concentrations of studied 7.5 and 10 mM. The ethanol concentration was measured after 13 and 45 hours according to the protocol described in Example 1.
Data set [4] deals with yeast Saccharomyces cerevisiae. Kind of data set: Simultaneous saccharification and fermentation (SSF) of spruce slurry. The class given is cell-based. The conditions noted are these: for Ethanol concentration: after 70 hours. The procedure: Addition of sodium dithionite and sodium sulphite was tested in an SSF process. Spruce was pretreated as described in Example 1 above. The spruce slurry was adjusted to pH 5.4 with a 5 M solution of sodium hydroxide. Ten 250-mL shake flasks equipped with magnetic stirrer bars were filled with 100 g of spruce slurry. Sodium dithionite or sodium sulphite was added to the slurries to final concentrations of 7.5 and 10 mM. The additions were performed at room temperature (23° C.) for 10 min with stirring. Duplicate experiments were made. Cellulase and cellobiase preparations were prepared and added to the slurry using the enzyme activity loadings as described in Example 1 above. Further, the yeast inoculum was prepared according to Example 1 above. Inoculums were added to give a start concentration of 2.0 g/L (cell dry weight) in every flask. No source of extra nutrients was added. For comparison, two flasks with spruce slurry to which no reducing agents had been added were included in the experiment. The flasks were incubated at 35° C. for 69 h in a water bath with magnetic stirring. The flasks were sealed with Parafilm (Pechiney Plastic Packaging Company, Chicago, Ill., USA) to prevent evaporation of ethanol. Samples were withdrawn for analysis of ethanol according to Example 1 above.
A spruce slurry was prepared according to Examples 1 and 2 above. Different flasks were filled with 100 g each of the spruce slurry and were subjected to a SSF process according to Example 2 above, but with different amounts of dithionite and sulphite added. The produced ethanol was monitored during the fermentation. […]

The nature of data set [5]: Fermentation of sugar solution with model inhibitor coniferyl aldehyde. The conditions noted are these: Saccharomyces cerevisiae. As to the method:
(§1) A sugar solution (glucose 18 g/L, mannose 14 g/L) with a coniferyl aldehyde concentration of 2.5 mM was prepared. Half of the solution was treated with 10 mM of sodium dithionite and the rest of the solution was left untreated as a reference. Fermentation was performed with the yeast Saccharomyces cerevisiae as described in the previous Examples.

The test system of data set [6] is yeast Saccharomyces cerevisiae. The data set is described as above. The conditions noted are these: sugar solution with coniferyl aldehyde (2.5 mM), untreated, FIG. 12. The procedure: as §1
Where [7] appears, read: bagass hydrolysate, 6 h fermentation, 10 mM.
The mark [8] stands for this setting: spruce hydrolysate, 14 h fermentation, 10 mM.

Take `O[C@H](CS)[C@H](O)CS` (racemic) [DTT, Dithiothreitol]: the Fermentability entry in data set [1] (acid spruce hydrolysate, 20 mM, treatment time 3 h) is recorded as “improved fermentability”. For the same compound, in data set [1] (acid spruce hydrolysate, 20 mM, treatment time 3 h, FIG. 13), the “Glucose consumption rate compared with the untreated sample” value is “higher glucose consumption rate”.

In the case of `N` [NH4OH, ammonium hydroxide, reference compound], the Ethanol concentration in data set [1] (NH4OH treatment, 2.75 h) is 4.56 g/L; in data set [1] (NH4OH treatment, 4.25 h), 10.75 g/L; in data set [1] (NH4OH treatment, 6.25 h), 9.81 g/L; in data set [1] (NH4OH treatment, 9.25 h), 14.08 g/L. Also, the Productivity was 1.66 g EtOH × L^−1 × h^−1 in data set [1] (NH4OH treatment, 2.75 h); 2.53 g EtOH × L^−1 × h^−1 in data set [1] (NH4OH treatment, 4.25 h); 1.57 g EtOH × L^−1 × h^−1 in data set [1] (NH4OH treatment, 6.25 h); 1.52 g EtOH × L^−1 × h^−1 in data set [1] (NH4OH treatment, 9.25 h). Also, the Yield was 0.30 g EtOH/g consumed glucose and mannose in data set [1] (NH4OH treatment, 2.75 h); 0.42 g EtOH/g consumed glucose and mannose in data set [1] (NH4OH treatment, 4.25 h); 0.32 g EtOH/g consumed glucose and mannose in data set [1] (NH4OH treatment, 6.25 h); 0.47 g EtOH/g consumed glucose and mannose in data set [1] (NH4OH treatment, 9.25 h); 0.34 g EtOH/g consumed glucose & mannose in data set [2] (bagass hydrolysate, 6 h fermentation, NH4OH detoxification); 0.43 g EtOH/g consumed glucose & mannose in data set [2] (spruce hydrolysate, 14 h fermentation, NH4OH detoxification). In data set [1] (acid spruce hydrolysate, NH4OH treatment, fermentation time 2.25 h), this compound came in with a Viable cells of 95.3 ± 3.0%.

Consider `O=S([O-])[O-].[Na+].[Na+]` [Sulphite, sodium sulphite], for which the “Fermentability (glucose consumption)” value in data set [1] (acid spruce hydrolysate, 1% (79.3 mM), FIG. 11) is recorded as “better fermentability compared to the untreated hydrolysate”. The “Fermentability (ethanol production after 13 and 45 hours)” value in data set [3] is “improved fermentability”. The Ethanol concentration result is “did not result in as high final ethanol concentrations” in data set [4] (2.5 mM); “did not result in as high final ethanol concentrations” in data set [4] (5 mM); 35 to 40 g/L in data set [4] (7.5 mM); 35 to 40 g/L in data set [4] (10 mM); “about 40 g/L” in data set [4] (15 mM); “about 40 g/L” in data set [4] (20 mM). Further, the Ethanol concentration entry in data set [4] (30 mM) is given as “about 40 g/L”. For the same compound, in data set [4] (7.5 and 10 mM, FIG. 5), the “Ethanol production compared to the untreated hydrolysate” value was “higher ethanol production”. In addition, the “Time after which ethanol formation leveled off” value in data set [4] (7.5 and 10 mM, FIG. 5) is recorded as 20 h. For the same compound, the Balanced ethanol yield in data set [2] (setting [7]) is 0.21 g EtOH/Σglucose & mannose prior to detoxification; in data set [2] (setting [8]), 0.16 g EtOH/Σglucose & mannose prior to detoxification. For the same compound, the Productivity in data set [2] (setting [7]) was determined as 2.9 g EtOH × L^−1 × h^−1; in data set [2] (setting [8]), 1.2 g EtOH × L^−1 × h^−1. In addition, the Yield in data set [2] (setting [7]) is recorded as 0.32 g EtOH/g consumed glucose & mannose; in data set [2] (setting [8]), 0.29 g EtOH/g consumed glucose & mannose. Further, the Ethanol production entry in data set [2] (bagass hydrolysate, 6 h fermentation, FIG. 4) was “high ethanol production”. In data set [2] (spruce hydrolysate, 10 mM, FIGS. 1 and 2), the “Glucose consumption rates and amounts of ethanol produced” value was “substantial improvement”.

Turning to `O=C1O[C@H]([C@@H](O)CO)C(O)=C1O` [ascorbic acid], in data set [1] (acid spruce hydrolysate, 100 mM, treatment time 3 h), the Fermentability entry was “improved fermentability”.

By viability is commonly meant a read-out of living cells in per cent, often relative to untreated cells. For `COc1cc(/C=C/C=O)ccc1O` [coniferyl aldehyde, reference compound], in data set [5], the viability at 2.25 h, 2.5 mM was 1.7% and the viability at 7 h, 2.5 mM is 0%. Also, in data set [6], the Glucose consumption result is reported as “approximately no reduced glucose concentration”.

In the case of `N[C@@H](CCC(=O)N[C@@H](CS)C(=O)NCC(=O)O)C(=O)O` [glutathione, reduced glutathione], the Fermentability entry in data set [1] (acid spruce hydrolysate, 10 mM, treatment time 3 h) is listed as “improved fermentability”.
